Source: US20240002344A1, “COMPOUNDS, COMPOSITIONS AND METHODS FOR HISTONE LYSINE DEMETHYLASE INHIBITION” (FibroGen, Inc., priority 2020, published 2024)

What was measured:
[1] = biological target: T1, recombinant human KDM5B (Homo sapiens, UniProt Q9UGL1); experiment: 14CO2 capture enzymatic assay (decarboxylation of [1-14C] αKG), KDM5B; assay type: biochemical; conditions: 10 μM [1-14C] αKG, 90 μM non-labeled αKG, 50 μM peptide substrate, 37° C., 1 hour, final 1% DMSO
T1 sequence (Q9UGL1 374-755 limits assumed): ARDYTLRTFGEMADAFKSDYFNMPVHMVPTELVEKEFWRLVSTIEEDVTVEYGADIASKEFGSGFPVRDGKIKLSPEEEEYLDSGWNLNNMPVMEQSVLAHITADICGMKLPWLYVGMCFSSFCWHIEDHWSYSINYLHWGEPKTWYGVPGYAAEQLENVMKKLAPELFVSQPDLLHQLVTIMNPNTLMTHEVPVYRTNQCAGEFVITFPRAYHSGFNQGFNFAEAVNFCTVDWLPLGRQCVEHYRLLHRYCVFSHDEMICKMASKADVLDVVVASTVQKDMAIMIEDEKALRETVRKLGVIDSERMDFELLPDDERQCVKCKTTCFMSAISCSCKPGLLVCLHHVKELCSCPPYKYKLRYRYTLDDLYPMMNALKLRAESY
Protocol: (§1) Enzymatic activity was determined based on the capture of ^14CO2 released by the decarboxylation of [1-^14C] αKG (Zhang et al., Anal. Biochem., 1998, vol. 271, pp. 137-142). [1-^14C]alphaketoglutarate (αKG) was from Perkin-Elmer, H3K4me3 and H3K9me3 peptides were from Mimotopes. All other reagents were from Sigma. Reaction mixtures included the following components: Fe(SO4), [1-^14C] αKG, non-labeled αKG, ascorbate, peptide-substrate (H3K4me3: H-ARTK(me3)QTARKSTGGKAPRKQLA-OH. H3K9me3: H-ARTKQTARK(me3)STGGKAPRKQLA-OH), NaCl, Tween-20 and catalase in 25 mM HEPES buffer, pH 7.4. The enzymatic reactions were initiated by addition of recombinant human KDM5B or KDM4A enzyme (truncated enzyme produced in house by method and using sequence disclosed in Ng et al, Nature 448:87-91, 2007). The reactions were performed in 96-well microtiter plates (20 μL total assay volume) (Greiner #650201). ^14CO2 was captured on a glass fiber filter paper (Cat. No. IH-201-A, Inotech Biosystems International) soaked with saturated Ba(OH)2 that was laid on top of the 96-well plate. A microtiter plate sealer film (Thermal Seal cat #T7961100) was applied to the filter paper. The plate and filter paper were sandwiched between two custom made aluminum plates (Advanced Component Manufacturing, Burlingame, CA) and transferred to a 37° C. oven and allowed to incubate for 1 hour. After incubation, the filter paper was dried in a 103° C. oven for 40-60 minutes. To determine percent turnover, aliquots of the reaction mixture were spotted onto the filter paper and the filter paper was dried again. The dry filter paper was exposed to a storage phosphor screen for 24-72 hours and the images recorded using a Typhoon FLA 7000 Imager (Amersham Biosciences, Piscataway, NJ). Integrated spot intensities corresponding to control reactions lacking the enzyme were subtracted from integration results for enzyme containing reactions and data were converted to enzyme dependent percent ^14CO2 release. All enzymatic reactions were run in duplicates.
(§2) For IC50 determination, a 3-fold dilution series of compound was prepared and added to the reaction mixture (final 1% DMSO, v/v) prior to enzyme addition. The final reagent concentrations were: 10 μM Fe(SO4), 10 μM [1-^14C] αKG, 90 μM non-labeled αKG, 2 mM ascorbate, 50 μM peptide substrate, 75 mM NaCl, 0.01% Tween-20 and ˜2 units/μL catalase. IC50s were determined by non-linear fitting using Grafit version 7.0.

[2] = biological target: T2, recombinant human KDM4A (Homo sapiens, UniProt O75164); experiment: 14CO2 capture enzymatic assay (decarboxylation of [1-14C] αKG), KDM4A; assay type: biochemical; conditions: 10 μM [1-14C] αKG, 90 μM non-labeled αKG, 50 μM peptide substrate, 37° C., 1 hour, final 1% DMSO
T2 construct: made in house
T2 sequence (O75164 1-359 limits assumed): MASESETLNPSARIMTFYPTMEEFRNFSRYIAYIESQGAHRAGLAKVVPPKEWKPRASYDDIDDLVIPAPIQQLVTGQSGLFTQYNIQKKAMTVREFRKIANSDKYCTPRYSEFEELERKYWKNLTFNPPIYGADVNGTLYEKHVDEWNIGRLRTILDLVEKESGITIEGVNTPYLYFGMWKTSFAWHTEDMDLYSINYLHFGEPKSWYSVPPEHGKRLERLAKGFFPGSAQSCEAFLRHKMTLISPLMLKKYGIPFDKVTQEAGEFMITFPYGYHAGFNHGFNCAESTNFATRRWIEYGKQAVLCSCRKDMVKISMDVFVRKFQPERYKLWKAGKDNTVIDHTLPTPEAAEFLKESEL
Protocol: as §1, §2

SMILES | IC50 [1] | IC50 [2]
N#Cc1cc(Cc2cccc(OC(F)(F)F)c2)nc(C(=O)CCC(=O)O)c1O [Example 48, 4-[4-Cyano-3-hydroxy-6-(3-trifluoromethoxy-benzyl)-pyridin-2-yl]-4-oxo-butyric acid] | 310 nM | > 40000 nM
N#Cc1cc(Cc2cc(Cl)cc(Cl)c2)nc(C(=O)CCC(=O)O)c1O [Example 31, 4-[4-Cyano-6-(3,5-dichloro-benzyl)-3-hydroxy-pyridin-2-yl]-4-oxo-butyric acid] | 230 nM | > 40000 nM
N#Cc1cc(Cc2c(Cl)cccc2Cl)nc(C(=O)CCC(=O)O)c1O [Example 32, 4-[4-Cyano-6-(2,6-dichloro-benzyl)-3-hydroxy-pyridin-2-yl]-4-oxo-butyric acid] | 240 nM | 12000 nM
COc1ccc(Cc2cc(C#N)c(O)c(C(=O)CCC(=O)O)n2)cc1 [Example 27, 4-[4-Cyano-3-hydroxy-6-(4-methoxy-benzyl)-pyridin-2-yl]-4-oxo-butyric acid] | 550 nM | > 40000 nM
CSc1cc(C#N)c(O)c(C(=O)CCC(=O)O)n1 [Example 5, 4-(4-Cyano-3-hydroxy-6-methylsulfanyl-pyridin-2-yl)-4-oxo-butyric acid] | 240 nM | 71000 nM
N#Cc1cc(Cc2c(F)cccc2Cl)nc(C(=O)CCC(=O)O)c1O [Example 30, 4-[6-(2-Chloro-6-fluoro-benzyl)-4-cyano-3-hydroxy-pyridin-2-yl]-4-oxo-butyric acid] | 250 nM | 17000 nM
N#Cc1cc(Br)c(O)c(C(=O)CCC(=O)O)n1 [Example 2, 4-(4-Bromo-6-cyano-3-hydroxy-pyridin-2-yl)-4-oxo-butyric acid] | 310 nM | 19000 nM
Cc1cccc(Cc2cc(C#N)c(O)c(C(=O)CCC(=O)O)n2)c1 [Example 37, 4-[4-Cyano-3-hydroxy-6-(3-methyl-benzyl)-pyridin-2-yl]-4-oxo-butyric acid] | 60 nM | > 40000 nM
Cn1cc(-c2cc(C#N)c(O)c(C(=O)CCC(=O)O)n2)cn1 [Example 16, 4-[4-Cyano-3-hydroxy-6-(1-methyl-1H-pyrazol-4-yl)-pyridin-2-yl]-4-oxo-butyric acid] | 210 nM | > 40000 nM
N#Cc1cc(CCc2ccccc2)nc(C(=O)CCC(=O)O)c1O [Example 15, 4-(4-Cyano-3-hydroxy-6-phenethyl-pyridin-2-yl)-4-oxo-butyric acid] | 390 nM | > 40000 nM
N#Cc1cc(C(F)(F)F)c(O)c(C(=O)CCC(=O)O)n1 [Example 8, 4-(6-Cyano-3-hydroxy-4-trifluoromethyl-pyridin-2-yl)-4-oxo-butyric acid] | 270 nM | 13000 nM
N#Cc1cc(CC2CCCCC2)nc(C(=O)CCC(=O)O)c1O [Example 33, 4-(4-Cyano-6-cyclohexylmethyl-3-hydroxy-pyridin-2-yl)-4-oxo-butyric acid] | 420 nM | > 40000 nM
N#Cc1cc(Cc2cccc(C(F)(F)F)c2)nc(C(=O)CCC(=O)O)c1O [Example 29, 4-[4-Cyano-3-hydroxy-6-(3-trifluoromethyl-benzyl)-pyridin-2-yl]-4-oxo-butyric acid] | 460 nM | > 40000 nM
N#Cc1cc(Cc2c(F)ccc(F)c2F)nc(C(=O)CCC(=O)O)c1O [Example 57, 4-[4-Cyano-3-hydroxy-6-(2,3,6-trifluoro-benzyl)-pyridin-2-yl]-4-oxo-butyric acid] | 270 nM | 28000 nM
N#Cc1cc(-c2cccnc2)nc(C(=O)CCC(=O)O)c1O [Example 13, 4-(4-Cyano-5-hydroxy-[2,3′]bipyridinyl-6-yl)-4-oxo-butyric acid] | 140 nM | 22000 nM

Other lines, results leading:

IC50 [1] | IC50 [2] | SMILES
250 nM | > 40000 nM | N#Cc1cc(-c2ccc(F)cc2Cl)nc(C(=O)CCC(=O)O)c1O [Example 83, 4-[6-(2-Chloro-4-fluoro-phenyl)-4-cyano-3-hydroxy-pyridin-2-yl]-4-oxo-butyric acid]
100 nM | > 40000 nM | Cc1cccc(-c2cc(C#N)c(O)c(C(=O)CCC(=O)O)n2)c1 [Example 72, 4-(4-Cyano-3-hydroxy-6-m-tolyl-pyridin-2-yl)-4-oxo-butyric acid]
260 nM | 1400 nM | Cc1noc(C)c1Cc1cc(C#N)c(O)c(C(=O)CCC(=O)O)n1 [Example 154, 4-[4-Cyano-6-(3,5-dimethyl-isoxazol-4-ylmethyl)-3-hydroxy-pyridin-2-yl]-4-oxo-butyric acid]
240 nM | > 40000 nM | N#Cc1cc(-c2ccc(OC(F)(F)F)cc2)nc(C(=O)CCC(=O)O)c1O [Example 67, 4-[4-Cyano-3-hydroxy-6-(4-trifluoromethoxy-phenyl)-pyridin-2-yl]-4-oxo-butyric acid]
120 nM | > 40000 nM | N#Cc1cc(Cc2c(Cl)ccc(F)c2Cl)cc(C(=O)CCC(=O)O)c1O [Example 134, 4-[3-Cyano-5-(2,6-dichloro-3-fluoro-benzyl)-2-hydroxy-phenyl]-4-oxo-butyric acid]
230 nM | > 40000 nM | N#Cc1cc(-c2ccc(C(F)(F)F)cc2Cl)nc(C(=O)CCC(=O)O)c1O [Example 115, 4-[6-(2-Chloro-4-trifluoromethyl-phenyl)-4-cyano-3-hydroxy-pyridin-2-yl]-4-oxo-butyric acid]
80 nM | 13000 nM | COc1cccc(Cl)c1Cc1cc(C#N)c(O)c(C(=O)CCC(=O)O)n1 [Example 125, 4-[6-(2-Chloro-6-methoxy-benzyl)-4-cyano-3-hydroxy-pyridin-2-yl]-4-oxo-butyric acid]
230 nM | > 40000 nM | N#Cc1cc(Oc2ccc(F)cc2)nc(C(=O)CCC(=O)O)c1O [Example 79, 4-[4-Cyano-6-(4-fluoro-phenoxy)-3-hydroxy-pyridin-2-yl]-4-oxo-butyric acid]
310 nM | > 40000 nM | Cc1c(Cl)cccc1-c1cc(C#N)c(O)c(C(=O)CCC(=O)O)n1 [Example 89, 4-[6-(3-Chloro-2-methyl-phenyl)-4-cyano-3-hydroxy-pyridin-2-yl]-4-oxo-butyric acid]
170 nM | > 40000 nM | Cc1ccc(Cl)cc1-c1cc(C#N)c(O)c(C(=O)CCC(=O)O)n1 [Example 91, 4-[6-(5-Chloro-2-methyl-phenyl)-4-cyano-3-hydroxy-pyridin-2-yl]-4-oxo-butyric acid]
370 nM | > 40000 nM | N#Cc1cc(CCc2ccccc2)cc(C(=O)CCC(=O)O)c1O [Example 135, 4-(3-Cyano-2-hydroxy-5-phenethyl-phenyl)-4-oxo-butyric acid]
310 nM | > 40000 nM | Cc1cccc(-c2cc(C#N)c(O)c(C(=O)CCC(=O)O)n2)c1Cl [Example 101, 4-[6-(2-Chloro-3-methyl-phenyl)-4-cyano-3-hydroxy-pyridin-2-yl]-4-oxo-butyric acid]
1400 nM | > 40000 nM | N#Cc1nc(-c2ccccc2)cc(C(=O)CCC(=O)O)c1O [Example 157, 4-(2-Cyano-3-hydroxy-6-phenyl-pyridin-4-yl)-4-oxo-butyric acid]
80 nM | > 40000 nM | N#Cc1cc(NC(=O)c2ccccc2)nc(C(=O)CCC(=O)O)c1O [Example 158, 4-(6-Benzoylamino-4-cyano-3-hydroxy-pyridin-2-yl)-4-oxo-butyric acid]
